In the NIST ThermoML archive (doi:10.1016/j.fluid.2016.02.031):
Numbers after ± are expanded uncertainties.

Assay: refractive index (Na D-line) (dimensionless); xn = mol fraction of the nth substance listed
Conditions: 100 kPa, Liquid, Standard Abbe refractometry

OCCCO [propan-1,3-diol] + CCC(C)=O
refractive index
Conditions	288.15 K	293.15 K	298.15 K	303.15 K	308.15 K	313.15 K	318.15 K	323.15 K	328.15 K	333.15 K
x1 = 0.1052	1.38816 ± 0.00035	1.3857 ± 0.00035	1.38318 ± 0.00035	1.38072 ± 0.00035	1.3783 ± 0.00035	1.37575 ± 0.00035	1.37324 ± 0.00035	1.3706 ± 0.00035	1.36798 ± 0.00035	1.36512 ± 0.00035
x1 = 0.2004	1.39411 ± 0.00035	1.39177 ± 0.00035	1.38937 ± 0.00035	1.38701 ± 0.00035	1.38469 ± 0.00035	1.38226 ± 0.00035	1.37988 ± 0.00035	1.37728 ± 0.00035	1.37479 ± 0.00035	1.37205 ± 0.00035
x1 = 0.3002	1.40019 ± 0.00035	1.39791 ± 0.00035	1.39561 ± 0.00035	1.39336 ± 0.00035	1.39119 ± 0.00035	1.38891 ± 0.00035	1.38656 ± 0.00035	1.38422 ± 0.00035	1.38186 ± 0.00035	1.3793 ± 0.00035
x1 = 0.4003	1.40646 ± 0.00035	1.4043 ± 0.00035	1.40216 ± 0.00035	1.40002 ± 0.00035	1.39791 ± 0.00035	1.39575 ± 0.00035	1.39357 ± 0.00035	1.39132 ± 0.00035	1.38903 ± 0.00035	1.38657 ± 0.00035
x1 = 0.4999	1.41261 ± 0.00035	1.41059 ± 0.00035	1.40857 ± 0.00035	1.40654 ± 0.00035	1.40452 ± 0.00035	1.40246 ± 0.00035	1.40036 ± 0.00035	1.39822 ± 0.00035	1.39608 ± 0.00035	1.3938 ± 0.00035
x1 = 0.5992	1.41868 ± 0.00035	1.4168 ± 0.00035	1.4149 ± 0.00035	1.41298 ± 0.00035	1.41104 ± 0.00035	1.4091 ± 0.00035	1.40712 ± 0.00035	1.40508 ± 0.00035	1.40306 ± 0.00035	1.40096 ± 0.00035
x1 = 0.6992	1.42474 ± 0.00035	1.42295 ± 0.00035	1.42116 ± 0.00035	1.41936 ± 0.00035	1.41754 ± 0.00035	1.41566 ± 0.00035	1.41382 ± 0.00035	1.41196 ± 0.00035	1.41006 ± 0.00035	1.4081 ± 0.00035
x1 = 0.7989	1.43046 ± 0.00035	1.42881 ± 0.00035	1.42712 ± 0.00035	1.42544 ± 0.00035	1.42374 ± 0.00035	1.42201 ± 0.00035	1.4203 ± 0.00035	1.41857 ± 0.00035	1.4168 ± 0.00035	1.41497 ± 0.00035
x1 = 0.8998	1.43588 ± 0.00035	1.43434 ± 0.00035	1.43277 ± 0.00035	1.43123 ± 0.00035	1.42967 ± 0.00035	1.42812 ± 0.00035	1.42654 ± 0.00035	1.42496 ± 0.00035	1.42335 ± 0.00035	1.42166 ± 0.00035
x1 = 1	1.44073 ± 0.00035	1.43932 ± 0.00035	1.43792 ± 0.00035	1.43654 ± 0.00035	1.43513 ± 0.00035	1.43375 ± 0.00035	1.43232 ± 0.00035	1.43087 ± 0.00035	1.42945 ± 0.00035	1.42803 ± 0.00035

c1ccncc1 [pyridine] + CCC(C)=O
refractive index
Conditions	288.15 K	293.15 K	298.15 K	303.15 K	308.15 K	313.15 K	318.15 K	323.15 K	328.15 K	333.15 K
x1 = 0.1006	1.39357 ± 0.00035	1.39094 ± 0.00035	1.3883 ± 0.00035	1.38577 ± 0.00035	1.38311 ± 0.00035	1.38031 ± 0.00035	1.37775 ± 0.00035	1.37505 ± 0.00035	1.37234 ± 0.00035	1.36942 ± 0.00035
x1 = 0.2019	1.40586 ± 0.00035	1.40321 ± 0.00035	1.40056 ± 0.00035	1.39791 ± 0.00035	1.39527 ± 0.00035	1.3926 ± 0.00035	1.38992 ± 0.00035	1.38721 ± 0.00035	1.38453 ± 0.00035	1.38158 ± 0.00035
x1 = 0.3002	1.41813 ± 0.00035	1.41548 ± 0.00035	1.41282 ± 0.00035	1.41015 ± 0.00035	1.40751 ± 0.00035	1.40483 ± 0.00035	1.40214 ± 0.00035	1.39946 ± 0.00035	1.39666 ± 0.00035	1.39394 ± 0.00035
x1 = 0.4004	1.43104 ± 0.00035	1.42836 ± 0.00035	1.42568 ± 0.00035	1.42298 ± 0.00035	1.4203 ± 0.00035	1.4176 ± 0.00035	1.41489 ± 0.00035	1.41218 ± 0.00035	1.40942 ± 0.00035	1.40669 ± 0.00035
x1 = 0.4999	1.44407 ± 0.00035	1.44138 ± 0.00035	1.43868 ± 0.00035	1.43597 ± 0.00035	1.43325 ± 0.00035	1.43052 ± 0.00035	1.42779 ± 0.00035	1.42502 ± 0.00035	1.42228 ± 0.00035	1.41944 ± 0.00035
x1 = 0.597	1.45674 ± 0.00035	1.45401 ± 0.00035	1.4513 ± 0.00035	1.44857 ± 0.00035	1.44585 ± 0.00035	1.44311 ± 0.00035	1.44039 ± 0.00035	1.43765 ± 0.00035	1.43488 ± 0.00035	1.43213 ± 0.00035
x1 = 0.6998	1.4705 ± 0.00035	1.46776 ± 0.00035	1.46502 ± 0.00035	1.46227 ± 0.00035	1.45952 ± 0.00035	1.45678 ± 0.00035	1.45404 ± 0.00035	1.4513 ± 0.00035	1.44853 ± 0.00035	1.44586 ± 0.00035
x1 = 0.7945	1.48331 ± 0.00035	1.48055 ± 0.00035	1.47779 ± 0.00035	1.47504 ± 0.00035	1.47226 ± 0.00035	1.4695 ± 0.00035	1.46675 ± 0.00035	1.46402 ± 0.00035	1.46124 ± 0.00035	1.45866 ± 0.00035
x1 = 0.8962	1.49734 ± 0.00035	1.49455 ± 0.00035	1.49176 ± 0.00035	1.48899 ± 0.00035	1.4862 ± 0.00035	1.48343 ± 0.00035	1.48066 ± 0.00035	1.47793 ± 0.00035	1.47513 ± 0.00035	1.4726 ± 0.00035
x1 = 1	1.51204 ± 0.00035	1.50923 ± 0.00035	1.50636 ± 0.00035	1.50355 ± 0.00035	1.50076 ± 0.00035	1.49796 ± 0.00035	1.49522 ± 0.00035	1.49245 ± 0.00035	1.48962 ± 0.00035	1.48708 ± 0.00035
